IC50, Activity and EC50 data for 28 compounds are collected here from ChEMBL document CHEMBL5131394, “Structure-activity and mechanistic studies of non-peptidic inhibitors of the PLK1 polo box domain identified through REPLACE” (Eur J Med Chem, 2022).

Assay [1] has as its target T1, Serine/threonine-protein kinase PLK1 (Homo sapiens, UniProt P53350). As to the kind of experiment: Binding affinity to recombinant human N-terminal GST-tagged PLK1-PBD (367 to 603 end residue) expressed in Escherichia coli using MAGPMQS[pT]PLNGAKK as substrate incubated for 45 mins by fluorescence polarization assay. In general terms: In fluorescence polarisation assays a small probe gives low polarisation when free and higher when bound to something large.

Another assay has as its system HeLa. Put plainly: Antiproliferative activity against human HeLa cells assessed as cell viability measured after 72 hrs by MTT assay. The class given is functional, cell-based.
Assay [2] concerns PC-3. As to the kind of experiment: Antiproliferative activity against human PC-3 cells assessed as cell viability measured after 72 hrs by MTT assay. The class given is functional, cell-based. As to conditions: PC-3, 72 h.
Assay [3] is described as follows: Antiproliferative activity against human HCT116-p53-null cells assessed as cell viability measured after 72 hrs by MTT assay. The class given is functional, cell-based. In general terms: Tetrazolium dyes change colour on reduction, which living cells bring about.
Assay [4] can be described thus: Antiproliferative activity against human RPE cells expressing wild-type PLK1 assessed as reduction in cell viability measured after 72 hrs by MTT assay. The class given is functional, cell-based.
A further assay has as its system A549. As to the kind of experiment: Antiproliferative activity against human A549 cells assessed as cell viability measured after 72 hrs by MTT assay. The class given is functional, cell-based. The conditions noted are these: A549, 72 h.
Assay [5] is described as follows: Antiproliferative activity against human RPE cells expressing PLK1 C67V mutant assessed as reduction in cell viability measured after 72 hrs by MTT assay. The class given is functional, cell-based.
Assay [6] deals with PC-3. As to the kind of experiment: Induction of mitotic arrest in human PC-3 cells assessed as accumulation of cells at G2/M phase. The class given is functional.
Assay [7] can be described thus: Antiproliferative activity against human p53HCT116 cells assessed as cell viability measured after 72 hrs by MTT assay. The class given is functional, cell-based. The conditions noted are these: p53HCT116, 72 h.
Assay [8] has as its target T1, Serine/threonine-protein kinase PLK1. As to the kind of experiment: Binding affinity to full length PLK1 in human PC-3 cells assessed as stabilized protein incubated for 2 hrs followed by aggregation temperature at 56.2 degC by […] analysis. The class given is cell-based.

T1 sequence (P53350 whole entry): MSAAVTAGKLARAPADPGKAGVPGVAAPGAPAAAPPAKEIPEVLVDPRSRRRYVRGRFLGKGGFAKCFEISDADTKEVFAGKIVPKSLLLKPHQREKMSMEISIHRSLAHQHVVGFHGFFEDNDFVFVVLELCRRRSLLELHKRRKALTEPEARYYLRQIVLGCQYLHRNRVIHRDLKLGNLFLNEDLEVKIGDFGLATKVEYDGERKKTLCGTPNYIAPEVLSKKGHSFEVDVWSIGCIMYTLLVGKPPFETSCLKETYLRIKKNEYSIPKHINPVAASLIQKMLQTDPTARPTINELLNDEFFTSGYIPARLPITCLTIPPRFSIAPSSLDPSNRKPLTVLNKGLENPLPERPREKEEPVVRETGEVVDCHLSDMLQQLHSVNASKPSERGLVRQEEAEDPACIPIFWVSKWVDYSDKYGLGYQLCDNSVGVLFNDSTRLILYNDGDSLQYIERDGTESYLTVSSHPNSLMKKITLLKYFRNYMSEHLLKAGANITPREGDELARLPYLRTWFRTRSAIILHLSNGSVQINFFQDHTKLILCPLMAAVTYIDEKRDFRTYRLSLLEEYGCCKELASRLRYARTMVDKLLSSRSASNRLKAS

As usually defined, the IC50 is the concentration that inhibits the measured activity by half. `CCCCCCCCc1ccc(C(=O)Nc2cccc(OC)c2C(=O)O)cc1`: the IC50 in assay [1] was 29.6 µM.

As for `CCCCCCCCc1ccc(C(=O)Nc2cccc(C(F)(F)F)c2C(=O)O)cc1`, the IC50 in assay [1] came out at 29.4 µM.

With `CCCCCCCCc1ccc(C(=O)Nc2cccc([N+](=O)[O-])c2C(=O)O)cc1`, the IC50 in assay [1] was 6.1 µM.

With `CCCCCCCCc1ccc(C(=O)Nc2ccccc2[N+](=O)[O-])cc1`, the IC50 in assay [1] was more than 600 µM.

Take `CCCCCCCCc1ccc(C(=O)Nc2ccccc2S(N)(=O)=O)cc1`: the IC50 in assay [1] stood at 259 µM.

On to `CCCCCCCCc1ccc(C(=O)Nc2ccccc2C(=O)OCC)cc1`, for which the IC50 in the assay with HeLa was more than 100 µM; in the assay with PC-3 [2], more than 100 µM; in assay [1], more than 600 µM.

As to `CCCCCCCCCCCCc1ccc(C(=O)Nc2ccccc2C(=O)O)cc1`, the IC50 in the assay on PC-3 [2] was 14 µM.

`CCCCCCCCc1ccc(C(=O)Nc2cccc(Cl)c2C(=O)O)cc1`: the IC50 in assay [1] stood at 25.3 µM.

In the case of `CCCCCCCCc1ccc(C(=O)Nc2ccccc2B(O)O)cc1`, the IC50 in [1] was more than 600 µM.

With `CCCCCCCCc1ccc(C(=O)Nc2c(O)cccc2C(=O)O)cc1`, the IC50 in assay [1] is 12 µM.

As to `CCCCCCCCc1ccc(C(=O)Nc2ccc(OC)cc2C(=O)O)cc1`, the IC50 with HeLa worked out at 8 µM; in assay [1], 5.9 µM.

As to `CCCCCCCCc1ccc(C(=O)Nc2ccccc2C(=O)O)cc1`, the IC50 in [3] is 8 µM; in assay [4], 33 µM; with A549, 2.8 µM; in [5] it was 25.9 µM.

In the case of `CCCCCCCCc1ccc(CNc2cccc(CC)c2)cc1`, in assay [1], the IC50 was more than 600 µM.

On to `CCCCCCCCc1ccc(C(=O)Nc2cccc(OP(=O)(O)O)c2)cc1`, for which the half-inhibitory concentration (IC50) in assay [1] was 98.3 µM.

Turning to `CCCCCCCCc1ccc(C(=O)Nc2cccc(F)c2C(=O)O)cc1`, the IC50 in assay [3] was 10 µM; in assay [4], 8.79 µM; with A549 it was 2.9 µM; in the assay on PC-3 [2], 11.6 µM; in [5], 9.1 µM; in assay [1], 11.1 µM.

With `CCCCCCCCc1ccc(CCNc2ccccc2C(=O)O)cc1`, the IC50 in [1] worked out at 118 µM.

As to `CC[C@@H]1C(=O)N(C)c2cnc(Nc3ccc(C(=O)NC4CCN(C)CC4)cc3OC)nc2N1C1CCCC1` [BI-2536], in the assay with PC-3 [6], the Activity was more than 75%.

Take `CCCCCCCCc1ccc(CNc2cccc(F)c2C(=O)O)cc1`: the IC50 in assay [1] is 18.8 µM.

Consider `CCCCCCCCc1ccc(C(=O)Nc2cc(F)cc(F)c2C(=O)O)cc1`, for which the IC50 in [1] was 30.6 µM.

Regarding `CCCCCCCCc1ccc(C(=O)Nc2cc(C)ccc2C(=O)O)cc1`, the IC50 in assay [3] came to 11.4 µM; in [7], 24.2 µM; in the assay on A549, 3.5 µM; with PC-3 [2] it was 18.8 µM; in assay [1], 4 µM.

For the compound `CCCCCCCCc1ccc(CNc2cccc(OP(=O)(O)O)c2)cc1`, the half-maximal inhibitory concentration (IC50) in [1] was more than 600 µM.

In the case of `CCCCCCCCc1ccc(C(=O)Nc2cccc(O)c2C(=O)O)cc1`, the IC50 in assay [1] came to 7.9 µM.

With `CCCCCCCCc1ccc(CNc2cc(C)ccc2C(=O)O)cc1`, the IC50 in [1] is 21.7 µM.

Usually EC50 stands for the concentration giving half of the maximal effect. As for `CCCCCCCCc1ccc(C(=O)Nc2ccc(C)cc2C(=O)O)cc1`, the IC50 in assay [3] came out at 10 µM; in assay [4], 13.4 µM; in assay [7] it was 17.4 µM; in the assay with A549 it was 5.1 µM; in the assay on PC-3 [2] it was 16.3 µM; in [5], 12.6 µM. For the same compound, the IC50 in assay [1] worked out at 2.2 µM. Besides, the 50% effective concentration (EC50) in assay [8] was found to be 0.82 µM.

For the compound `CCCCCCCCc1ccc(CNc2ccccc2C(=O)O)cc1`, the IC50 in assay [1] stood at 9.8 µM.

With `CCCCCCCCc1ccc(CNc2ccc(C)cc2C(=O)O)cc1`, in [1], the IC50 is more than 600 µM.

Consider `CCCCCc1ccc(C(=O)Nc2ccccc2C(=O)O)cc1`, for which the IC50 in [1] stood at 224 µM.

Take `CCCCc1ccc(C(=O)Nc2ccccc2C(=O)O)cc1`: the IC50 in assay [1] was more than 600 µM.
